According to patent US8778923B2, “GLP-1 receptor modulators” (Receptos, Inc., priority 2011, dated 2014):

Target: T1, GLP-1R (Homo sapiens, UniProt P43220)
T1 construct: host or cells: CRE-bla CHO-K1
Test: EC20 GLP-1(9-36) PAM cAMP assay: dose response of compound in the presence of fixed concentration of GLP-1(9-36)
Format: cell-based
Details: GLP-1R CRE-bla CHO-K1 cells, compound dose response in presence of fixed concentration of GLP-1(9-36)
Outline: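 GLP-1R CRE-bla CHO-K1 cells in HBSS/10 mM Hepes/0.1% BSA pH 7.4 with IBMX got a 12-point compound dose response plus fixed EC20 GLP-1(9-36), 30 min at 37 °C. cAMP measured by HitHunter luminescence against a standard curve; EC50 and Emax by non-linear regression.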

T1 sequence (P43220 24-463): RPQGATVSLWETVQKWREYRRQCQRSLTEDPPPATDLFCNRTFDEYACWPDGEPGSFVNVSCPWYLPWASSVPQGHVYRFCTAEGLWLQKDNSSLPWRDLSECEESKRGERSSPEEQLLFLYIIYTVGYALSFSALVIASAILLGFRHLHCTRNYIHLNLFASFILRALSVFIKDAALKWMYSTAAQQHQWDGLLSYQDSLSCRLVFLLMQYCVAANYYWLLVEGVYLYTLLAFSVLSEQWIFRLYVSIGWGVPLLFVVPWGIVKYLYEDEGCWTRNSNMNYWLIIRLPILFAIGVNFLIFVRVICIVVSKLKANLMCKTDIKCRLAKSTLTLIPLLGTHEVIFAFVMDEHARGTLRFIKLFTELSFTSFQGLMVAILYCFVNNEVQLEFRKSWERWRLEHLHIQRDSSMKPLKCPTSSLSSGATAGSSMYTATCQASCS
T1 sequence (P01275 100-127 partner limits assumed): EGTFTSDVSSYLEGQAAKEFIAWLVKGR

SMILES: CCCCCCCOc1ccc(-c2cnc(-c3ccc(C[C@H](NC(=O)c4ccc(C(C)(C)C)s4)C(=O)N[C@H](Cc4cnc[nH]4)C(=O)O)cc3)nc2)cc1 [Compound 325]
- EC50: 5000 to 10000 nM

SMILES: CC(C)Oc1ccc(-c2nc(-c3ccc(C[C@H](NC(=O)c4ccc(C(C)(C)C)cc4)C(=O)O)cc3)no2)cc1 [Compound 33]
- EC50: 2500 to 5000 nM

SMILES: CCCCCCCOc1ccc(-c2cnc(-c3ccc(C[C@H](NC(=O)c4ccc(C(C)(C)C)s4)C(=O)N4CCC[C@@H]4C(=O)O)cc3)nc2)cc1 [Compound 329]
- EC50: 800 to 2500 nM

SMILES: CCCCOc1ccc(-c2cnc(-c3ccc(C[C@H](NC(=O)c4ccc(C(C)(C)C)s4)C(=O)O)cc3)nc2)cc1 [Compound 237]
- EC50: 800 to 2500 nM

SMILES: CCCCCCCOc1ccc(-c2cnc(-c3ccc(C[C@H](NC(=O)c4ccc(C(C)C)cc4)C(=O)N[C@H](C)C(=O)O)cc3)nc2)cc1 [Compound 312]
- EC50: 800 to 2500 nM

SMILES: CCCCCCCOc1ccc(-c2cnc(-c3ccc(C[C@H](NC(=O)c4ccc(C(C)(C)C)s4)C(=O)N[C@H](CCC(=O)O)C(=O)O)cc3)nc2)cc1 [Compound 331]
- EC50: 800 to 2500 nM

SMILES: CN(C)c1cccc(-c2cnc(-c3ccc(C[C@H](NC(=O)c4ccc(C(C)(C)C)cc4)C(=O)O)cc3)nc2)c1 [Compound 202]
- EC50: 5000 to 10000 nM

SMILES: CCCCCCCOc1ccc(-c2cnc(-c3ccc(C[C@H](NC(=O)c4ccc(CCCC)cc4)C(=O)O)cc3)nc2)cc1 [Compound 107]
- EC50: 800 to 2500 nM

SMILES: CCCCCCCOc1ccc(-c2cnc(-c3ccc(C[C@H](NC(=O)c4cccc(C)c4)C(=O)O)cc3)nc2)cc1 [Compound 111]
- EC50: 800 to 2500 nM

SMILES: CCCCCCCOc1ccc(-c2cnc(-c3ccc(C[C@H](NC(=O)c4ccc(N5CCCC5)cc4)C(=O)O)cc3)nc2)cc1 [Compound 90]
- EC50: 2500 to 5000 nM

SMILES: CC(C)Oc1ccc(-c2cnc(-c3ccc(C[C@H](NC(=O)c4ccc(C(C)(C)C)s4)C(=O)O)cc3)nc2)cc1 [Compound 241]
- EC50: 800 to 2500 nM

SMILES: CC(C)(C)c1ccc(C(=O)N[C@@H](Cc2ccc(-c3noc(-c4ccc(N5CCCCC5)cc4)n3)cc2)C(=O)O)cc1 [Compound 5]
- EC50: 2500 to 5000 nM

SMILES: CC(C)(C)c1ccc(C(=O)N[C@@H](Cc2ccc(-c3noc(-c4ccc(S(N)(=O)=O)cc4)n3)cc2)C(=O)O)cc1 [Compound 54]
- EC50: 2500 to 5000 nM

SMILES: CCCCCCCOc1ccc(-c2cnc(-c3ccc(C[C@H](NC(=O)c4ccc(C(C)(C)C)s4)C(=O)N[C@@H](CCC(=O)O)C(=O)O)cc3)nc2)cc1 [Compound 330]
- EC50: 800 to 2500 nM

SMILES: CCCCCCOc1ccc(-c2cnc(-c3ccc(C[C@H](NC(=O)c4ccc(C(C)(C)C)cc4)C(=O)O)cc3)nc2)cn1 [Compound 257]
- EC50: 800 to 2500 nM

SMILES: CCCCCCCOc1ccc(-c2cnc(-c3ccc(C[C@H](NC(=O)c4cc(C(C)(C)C)n[nH]4)C(=O)O)cc3)nc2)cc1 [Compound 136]
- EC50: 5000 to 10000 nM

SMILES: CC(=O)c1ccc(-c2nc(-c3ccc(C[C@H](NC(=O)c4ccc(C(C)(C)C)cc4)C(=O)O)cc3)no2)cc1 [Compound 45]
- EC50: 800 to 2500 nM

SMILES: Cc1cccc(-c2ccc(-c3nc(-c4ccc(C[C@H](NC(=O)c5ccc(C(C)(C)C)cc5)C(=O)O)cc4)no3)cc2)c1 [Compound 13]
- EC50: 800 to 2500 nM

SMILES: CCCCCCCOc1ccc(-c2cnc(-c3ccc(C[C@H](NC(=O)c4coc(C(C)C)n4)C(=O)O)cc3)nc2)cc1 [Compound 132]
- EC50: 800 to 2500 nM

SMILES: CC(C)(C)c1ccc(C(=O)N[C@@H](Cc2ccc(-c3noc(-c4ccc5[nH]ccc5c4)n3)cc2)C(=O)O)cc1 [Compound 64]
- EC50: 800 to 2500 nM

SMILES: CC(C)c1ccc(-c2nc(-c3ccc(C[C@H](NC(=O)c4ccc(C(C)(C)C)cc4)C(=O)O)cc3)no2)cc1 [Compound 10]
- EC50: 2500 to 5000 nM

SMILES: COc1ccc(C(=O)N[C@@H](Cc2ccc(-c3ncc(-c4ccc(C(C)(C)C)cc4)cn3)cc2)C(=O)O)cc1 [Compound 170]
- EC50: 800 to 2500 nM

SMILES: CCCCCCCOc1ccc(-c2cnc(-c3ccc(C[C@H](NC(=O)c4ccc(CC)s4)C(=O)O)cc3)nc2)cc1 [Compound 137]
- EC50: 800 to 2500 nM

SMILES: CC(C)(C)c1ccc(C(=O)N[C@@H](Cc2ccc(-c3noc(-c4ccc(S(C)(=O)=O)cc4)n3)cc2)C(=O)O)cc1 [Compound 41]
- EC50: 2500 to 5000 nM

SMILES: CCCCCCCOc1ccc(-c2cnc(-c3ccc(C[C@H](NC(=O)c4ccc(C(C)(C)C)cc4)C(=O)N(C)CCC(=O)O)cc3)nc2)cc1 [Compound 302]
- EC50: 2500 to 5000 nM

SMILES: CCCCCCCOc1ccc(-c2cnc(-c3ccc(C[C@H](NC(=O)c4ccc(C(C)(C)C)s4)C(=O)NC(CC(=O)O)c4ccc(O)cc4)cc3)nc2)cc1 (stereo partly shown) [Compound 350]
- EC50: < 800 nM

SMILES: CC(C)(C)c1ccc(C(=O)N[C@H](CC(=O)O)Cc2ccc(-c3noc(-c4ccc(N5CCCCC5)cc4)n3)cc2)cc1 [Compound 75]
- EC50: 2500 to 5000 nM

SMILES: CC(C)(C)c1ccc(-c2cnc(-c3ccc(C[C@H](NC(=O)c4ccc(C(C)(C)C)s4)C(=O)NC(CN4CCCC4)C(=O)O)cc3)nc2)cc1 (stereo partly shown) [Compound 365]
- EC50: 2500 to 5000 nM

SMILES: CCCCCCCOc1ccc(-c2cnc(-c3ccc(C[C@H](NC(=O)c4cccc(N)c4)C(=O)O)cc3)nc2)cc1 [Compound 104]
- EC50: 800 to 2500 nM

SMILES: CCCCCCCOc1ccc(-c2cnc(-c3ccc(C[C@H](NC(=O)c4nnc(C(C)(C)C)s4)C(=O)O)cc3)nc2)cc1 [Compound 141]
- EC50: 800 to 2500 nM

SMILES: CCCCCCCOc1ccc(-c2nc(-c3ccc(C[C@H](NC(=O)c4ccc(C(C)(C)C)cc4)C(=O)O)cc3)no2)cn1 [Compound 51]
- EC50: 2500 to 5000 nM

SMILES: CCCCCCCOc1ccc(-c2cnc(-c3ccc(C[C@H](NC(=O)c4ccc(C(=O)N(C)C)cc4)C(=O)O)cc3)nc2)cc1 [Compound 128]
- EC50: 800 to 2500 nM

SMILES: CCCCCCCOc1ccc(-c2cnc(-c3ccc(C[C@H](NC(=O)c4ccc(C(C)(C)C)cc4)C(=O)O)cc3)nc2N(C)C)cc1 [Compound 293]
- EC50: 2500 to 5000 nM

SMILES: CC(C)(C)c1ccc(C(=O)N[C@@H](Cc2ccc(N3CCN(c4ccc(-c5ccccc5)cc4)CC3)cc2)C(=O)O)cc1 [Compound 266]
- EC50: 5000 to 10000 nM

SMILES: CCCCCCCOc1ccc(-c2cnc(-c3ccc(C[C@H](NC(=O)c4ccc(C(C)(C)C)cc4)C(=O)O)cc3)cc2C)cc1 [Compound 294]
- EC50: 800 to 2500 nM

SMILES: CCCCCCCOc1ccc(-c2cnc(-c3ccc(C[C@H](NC(=O)c4ccc(S(C)(=O)=O)cc4Cl)C(=O)O)cc3)nc2)cc1 [Compound 123]
- EC50: 800 to 2500 nM

SMILES: CCCCCCCCCOc1ccc(-c2cnc(-c3ccc(C[C@H](NC(=O)c4ccc(C(C)(C)C)s4)C(=O)O)cc3)nc2)cc1 [Compound 260]
- EC50: < 800 nM

SMILES: COc1cc(C(F)(F)F)ccc1-c1ccc(-c2nc(-c3ccc(C[C@H](NC(=O)c4ccc(C(C)(C)C)cc4)C(=O)O)cc3)no2)cc1 [Compound 27]
- EC50: 800 to 2500 nM

SMILES: CCCCCCCOc1ccc(-c2cnc(-c3ccc(C[C@H](NC(=O)c4ccc(OC(F)(F)F)cc4)C(=O)O)cc3)nc2)cc1 [Compound 120]
- EC50: 800 to 2500 nM

SMILES: CC(C)(C)c1ccc(C(=O)N[C@@H](Cc2ccc(-c3noc(-c4ccc(-c5ccc(F)cc5)cc4)n3)cc2)C(=O)O)cc1 [Compound 21]
- EC50: 2500 to 5000 nM

SMILES: Cc1cccc(-c2ccc(-c3cnc(-c4ccc(C[C@H](NC(=O)c5ccc(C(C)(C)C)s5)C(=O)O)cc4)nc3)cc2)c1 [Compound 247]
- EC50: 800 to 2500 nM

SMILES: CCCCCCCOc1ccc(-c2cnc(-c3ccc(C[C@H](NC(=O)c4ncc(C(C)(C)C)s4)C(=O)NCC(=O)O)cc3)nc2)cc1 [Compound 371]
- EC50: < 800 nM

SMILES: Cc1cccc(-c2cnc(-c3ccc(C[C@H](NC(=O)c4ccc(C(C)(C)C)cc4)C(=O)O)cc3)nc2)c1 [Compound 217]
- EC50: 5000 to 10000 nM

SMILES: CCCCCCCOc1ccc(-c2cnc(-c3ccc(C[C@H](NC(=O)c4cc5ccccc5s4)C(=O)O)cc3)nc2)cc1 [Compound 156]
- EC50: 800 to 2500 nM

SMILES: CC(C)(C)c1ccc(C(=O)N[C@@H](Cc2ccc(-c3noc(-c4ccc(O)cc4)n3)cc2)C(=O)O)cc1 [Compound 43]
- EC50: 2500 to 5000 nM

SMILES: CC(C)(C)c1ccc(C(=O)N[C@@H](Cc2ccc(-c3ncc(-c4ccc(OC5CC5)cc4)cn3)cc2)C(=O)O)s1 [Compound 244]
- EC50: 2500 to 5000 nM

SMILES: CCCCCCCCCCCCCCCCOc1ccc(-c2cnc(-c3ccc(C[C@H](NC(=O)c4ccc(C(C)(C)C)s4)C(=O)O)cc3)nc2)cc1 [Compound 252]
- EC50: 5000 to 10000 nM

SMILES: CC(C)(C)c1ccc(-c2cnc(-c3ccc(C[C@H](NC(=O)c4ccc(C(C)(C)C)s4)C(=O)O)cc3)cn2)cc1 [Compound 282]
- EC50: 800 to 2500 nM

SMILES: CCCCCCCCCCOc1ccc(-c2cnc(-c3ccc(C[C@H](NC(=O)c4ccc(C(C)(C)C)s4)C(=O)O)cc3)nc2)cc1 [Compound 249, (S)-2-(5-(tert-butyl)thiophene-2-carboxamido)-3-(4-(5-(4-(decyloxy)phenyl)-pyrimidin-2-yl)phenyl)propanoic acid]
- EC50: 5000 to 10000 nM

SMILES: CCCCCCCOc1ccc(-c2cnc(-c3ccc(C[C@@H](NC(=O)c4ccc(C(C)(C)C)s4)C(=O)N[C@H](CO)C(=O)O)cc3)nc2)cc1 [Compound 379]
- EC50: < 800 nM

SMILES: CCOc1ccc(C(=O)N[C@@H](Cc2ccc(-c3ncc(-c4ccc(C(C)(C)C)cc4)cn3)cc2)C(=O)O)cc1 [Compound 171]
- EC50: 800 to 2500 nM

SMILES: CC(C)(C)c1ccc(-c2cnc(-c3ccc(C[C@H](NC(=O)c4ccc(C(C)(C)C)s4)C(=O)N[C@H](CO)C(=O)O)cc3)nc2)cc1 [Compound 354]
- EC50: < 800 nM

SMILES: CCCCCCCOc1ccc(-c2cnc(-c3ccc(C[C@H](NC(=O)c4ccc(C(C)(C)C)s4)C(=O)N[C@H](C)CC(=O)O)cc3)nc2)cc1 [Compound 345]
- EC50: < 800 nM

SMILES: CCCCCCCOc1ccc(-c2cnc(-c3ccc(C[C@H](NC(=O)c4ccc(C(C)(C)C)cc4)C(=O)O)cc3)cc2C(F)(F)F)cc1 [Compound 295]
- EC50: 800 to 2500 nM

SMILES: CCCCCCCOc1ccc(-c2cnc(-c3ccc(C[C@H](NC(=O)c4ccc(C(C)(C)C)s4)C(=O)N4CC[C@H](C(=O)O)C4)cc3)nc2)cc1 [Compound 349]
- EC50: < 800 nM

SMILES: CCCCCCCOc1ccc(-c2cnc(-c3ccc(C[C@H](NC(=O)c4cc5cccnc5s4)C(=O)O)cc3)nc2)cc1 [Compound 158]
- EC50: < 800 nM

SMILES: Cc1cc(-c2cnc(-c3ccc(C[C@H](NC(=O)c4ccc(C(C)(C)C)cc4)C(=O)O)cc3)nc2)ccc1N(C)C [Compound 232]
- EC50: 800 to 2500 nM

SMILES: CCCCCCCOc1ccc(-c2cnc(-c3ccc(C[C@H](NC(=O)c4ccc(C(C)(C)C)s4)C(=O)N[C@H](CO)C(=O)O)cc3)nc2)cc1 [Compound 323]
- EC50: < 800 nM
